The values below come from patent US11584752B2, “Method for controlled release using mechanical force” (California Institute of Technology, priority 2020, dated 2023).

“Also recorded” adds a separate entry of the source.

Data set [1] can be described thus: Thermal stability of Diels-Alder adducts in toluene-d8 (retro-Diels-Alder conversion by 1H NMR). It is filed as physicochemical. The source says: For example, FIGS. 7A and 7B illustrate that addition of the 3-phenoxy group to the furan moiety leads to a pronounced increase in the thermal stability of the Diels-Alder adduct of many embodiments. Not to be bound by any theory, this effect has been observed previously for cycloadducts derived from 3-alkoxy-furans, and it has been ascribed to a reduction in the energetic penalty for loss of furan aromaticity (as explained, for example in: Boutelle, R. C.; Northrop, B. H. Substituent Effects on the Reversibility of Furan-Maleimide Cycloadditions. J. Org. Chem. 2011, 76, 7994-8002; and Foster, R. W.; et al. Irreversible endo-Selective Diels-Alder Reactions of Substituted Alkoxyfurans: A General Synthesis of endo-Cantharimides. Chemistry 2015, 21, 6107-6114, the disclosures of which are incorporated herein by reference). Accordingly, FIG. 7A illustrates that, […] after 5 h, while the same conditions lead to approximately 46% reversion of the analogous Diels-Alder adduct (±)-216 without the 3-phenoxy substituent. […] Accordingly, in many embodiments, 3-phenoxy, or any similar aryloxy substituent at 3-position of the furan moiety enhances the thermal stability of such mechanophore platforms without any detriment to their mechanochemical activity.
In comparison, as described herein, heating the Diels-Alder adduct comprising a 3-OPh substituted furan moiety at 70° C. under the same conditions results in <2% retro-Diels-Alder conversion, while for the Diels-Alder adduct comprising neither substituent the conversion ˜46% under the same heating conditions.

Data set [2] can be described thus: Decomposition of model 2-furylcarbinol derivatives in solution at room temperature, followed by NMR and photoluminescence spectroscopy.
Text: The generation of hydroxycoumarin 2 in the room temperature solution of furfuryl carbonate 1 in MeCN:MeOH (3:1) was also monitored over time using fluorescence spectroscopy (FIG. 3C).
Furthermore, FIG. 8C illustrates the kinetics of the decomposition of furfuryl carbamates comprising α-methyl, 3-phenoxy, and 5-position substituents according to many embodiments, such as exemplified by 21, and compares them to the furfuryl carbamates without the 3-phenoxy substitution, such as exemplified by furfuryl carbamate 22. More specifically, FIG. 8C provides data from experimental studies, wherein the decompositions of 21 and 22 to generate aminocoumarin 23 were monitored as a function of time using NMR and PL spectroscopy.
The mark [3] stands for this setting: toluene-d8, room temperature, after 132 days.

Regarding `CC(C)(Br)C(=O)OCCc1ccc(OC23C=CC(CO)(O2)C2C(=O)N(CCOC(=O)C(C)(C)Br)C(=O)C23)cc1` (racemic) [(±)-33, 4-((2-(2-((2-bromo-2-methylpropanoyl)oxy)ethyl)-7-(hydroxymethyl)-1,3-dioxo-1,2,3,3a,7,7a-hexahydro-4H-4,7-epoxyisoindol-4-yl)oxy)phenethyl 2-bromo-2-methylpropanoate], the retro-Diels-Alder conversion result in data set [1] (toluene-d8 (7.7 mM), room temperature, nearly two months) is “negligible; also recorded: no detectable products”; in data set [1] (toluene-d8, 70° C., after 21 h), roughly 35%.

Take `Cc1cc(=O)oc2cc(NC(=O)OC(C)c3ccc(COC(=O)C(C)(C)C)o3)ccc12` (centres unmarked) [Compound 22, (5-(1-(((4-methyl-2-oxo-2H-chromen-7-yl)carbamoyl)oxy)ethyl)furan-2-yl)methyl pivalate]: the conversion result in data set [2] (19.6 mM in MeCN-d3:MeOH (3:1), room temperature, after 134 days, 1H NMR) was “approximately 40%”. In data set [2] (3:1 MeCN/MeOH, room temperature, same conditions as 21), the decomposition reactivity entry is given as “completely unreactive”.

As for `Cc1cc(=O)oc2cc(NC(=O)OC(C)c3oc(COC(=O)C(C)(C)C)cc3Oc3ccccc3)ccc12` (centres unmarked) [Compound 21, (5-(1-(((4-methyl-2-oxo-2H-chromen-7-yl)carbamoyl)oxy)ethyl)-4-phenoxyfuran-2-yl)methyl pivalate], the “time to full conversion to products” value in data set [2] (3:1 MeCN/MeOH, room temperature) is given as “approximately 5 h”. Besides, in data set [2] (MeCN-d3/MeOH solution, half-life for decomposition t1/2, 3:1 MeCN-d3/MeOH, room temperature, NMR, first-order fit), the half-life (as a rule, how long it takes for the measured level to halve) at 19 μM amounted to 0.567 h.

In data set [2] (acetonitrile-d3/methanol solution, half-life for consumption t1/2, 3:1 acetonitrile-d3/methanol, room temperature, NMR, 21 mM), `Cc1cc(=O)oc2cc(NC(=O)OCc3ccc(Oc4ccc(CCOC(=O)C(C)(C)Br)cc4)o3)ccc12` [Compound 35, 4-((5-((((4-methyl-2-oxo-2H-chromen-7-yl)carbamoyl)oxy)methyl)furan-2-yl)oxy)phenethyl 2-bromo-2-methylpropanoate] had a half-life at 21 mM of 9.3 h. Also, the “yield of aminocoumarin released” value in data set [2] (acetonitrile/methanol (3:1 v/v), room temperature) is given as “nearly quantitative”. In data set [2] (acetonitrile/methanol solution, half-life of consumption and aminocoumarin generation, acetonitrile/methanol (3:1 v/v), room temperature, 1H NMR and PL), this compound showed a half-life of roughly 10 h.

Take `CC(O)[C@@]12C=C[C@@](COC(=O)C(C)(C)Br)(O1)[C@@H]1C(=O)N(CCOC(=O)C(C)(C)Br)C(=O)[C@@H]12` (mixture of isomers) [(±)-216]: the retro-Diels-Alder conversion result in data set [1] (toluene-d8, 70° C., after 5 h) is “approximately 46%”; in data set [1] (toluene-d8, 70° C., after 21 h), “nearly quantitative”; in data set [1] (setting [3]), “approximately 23%”. The thermal stability entry in data set [1] (toluene-d8, room temperature) is “slow, but detectable, reversion”.

Turning to `Cc1cc(=O)oc2cc(OC(=O)OCc3ccc(COC(=O)C(C)(C)Br)o3)ccc12` [Compound S2, (5-(((((4-methyl-2-oxo-2H-chromen-7-yl)oxy)carbonyl)oxy)methyl)furan-2-yl)methyl 2-bromo-2-methylpropanoate], in data set [2] (room temperature), the “estimated half-lives for decomposition” value is “several weeks”.

Take `Cc1cc(=O)oc2cc(OC(=O)OC(C)c3ccc(COC(=O)C(C)(C)Br)o3)ccc12` (centres unmarked) [Compound 1, (5-(1-((((4-methyl-2-oxo-2H-chromen-7-yl)oxy)carbonyl)oxy)ethyl)furan-2-yl)methyl 2-bromo-2-methylpropanoate]: the stability in solvent entry is reported as “relatively stable” in data set [2] (DCM, chloroform, and hexanes); “decomposes quickly” in data set [2] (acidic and protic solvents); “relatively stable” in data set [2] (chloroform and acetonitrile). Further, the half-life in data set [2] (acetonitrile-d3/methanol solution, reaction half-life t1/2 of decomposition, 3:1 (v/v) acetonitrile-d3/methanol, room temperature, from NMR measurements) was 1.32 h; in data set [2] (water/acetonitrile-d3 solution, half-life of decomposition, water/acetonitrile mixture (water 25% by volume in acetonitrile-d3), room temperature, NMR), roughly 0.133 h.

Turning to `CC(O)C12OC(COC(=O)C(C)(C)Br)(C=C1Oc1ccccc1)C1C(=O)N(CCOC(=O)C(C)(C)Br)C(=O)C12` (racemic) [(±)-29, (2-(2-((2-bromo-2-methylpropanoyl)oxy)ethyl)-7-(1-hydroxyethyl)-1,3-dioxo-6-phenoxy-1,2,3,3a,7,7a-hexahydro-4H-4,7-epoxyisoindol-4-yl)methyl 2-bromo-2-methylpropanoate], the retro-Diels-Alder conversion is reported as less than 2% in data set [1] (toluene-d8, 70° C., after 5 h); less than 7% in data set [1] (toluene-d8, 70° C., after 21 h); “no reaction is observed” in data set [1] (setting [3]). The thermal stability entry in data set [1] (toluene-d8, room temperature) is “stable indefinitely”.
